Reference: patent US4264590A, “Antibacterial peptide” (Abbott Laboratories, priority 1980, dated 1981)

Columns and labels:
[1] = tested on: E. coli (305-101); test: mouse protection test, CD50 (Table III); type: in vivo
Experimental: (§1) Charles River mice, weighing approximately 20 g. each, are infected intraperitoneally with 10-100 times the LD of the infecting organism. At predetermined intervals post-infection, e.g., 1 and 5 hours, mice are dosed subcutaneously with graded doses of the halogenated peptide, antibiotic and combination thereof. The number of mice surviving each treatment for 7 days post-infection is observed and the CD50 is calculated. The fractional inhibitory concentration (F.I.C.) for each combination is calculated in the usual manner.
(§2) In this table, the following infecting microorganisms were used:
(§3) The infecting organisms are listed by the above code; the compounds are listed by their Example number. In all instances, the dipeptide and D-cycloserine were tested at a ratio of 10:1. The CD50 combination column lists only the amount of peptide present; the D-cycloserine amount is 10% of the listed amount.

[2] = tested on: S. aureus (Smith); test: mouse protection test, CD50 (Table III); type: in vivo
Experimental: as §1, §2, §3

[3] = tested on: E. coli (Juhl); test: serial dilution in synthetic medium in test tubes, MIC and F.I.C. index (Table II); type: cell-based; conditions: for MIC: Escherichia coli
Experimental: The halogenated peptides alone, the antibiotic alone or mixtures of the halogenated peptides and selected antibiotics are prepared in sterile concentrated aqueous solutions at the desired ratios. Serial dilutions are made to give a range of concentrations of the test substances. Samples of the dilutions are mixed with an appropriate sterile synthetic medium in test tubes. The tubes are then inoculated with an appropriate test organism and incubated at 35°-37° C. for 16-20 hours. Minimum inhibitory concentrations, i.e., that concentration which inhibits visible growth, are read and the fractional inhibitory concentration indices (F.I.C.) are calculated. In all instances, E. coli (Juhl) was used as the infecting microorganism.

[4] = tested on: Strep. pyrogenes (C 203); test: mouse protection test, CD50 (Table III); type: in vivo
Experimental: as §1, §2
Strep. pyrogenes (C 203).
as §3

[5] = tested on: E. coli 6880; test: two-fold agar dilution assay, M.I.C.; type: cell-based
From the text: (§4) In a two-fold agar dilution assay with E. coli (Juhl) and E. coli 6880 as test organisms, compounds of Examples 1 and 2 show a minimum inhibitory concentration (M.I.C.) of >800 ppm. […] The combination of the new peptide with D-cycloserine produces the following M.I.C. test results.

[6] = tested on: E. coli (Juhl); test: two-fold agar dilution assay, M.I.C.; type: cell-based
From the text: as §4

[7] = combination with D-cycloserine, ratio Pep/Antib. 1:1
[8] = combination with D-cycloserine, ratio Pep/Antib. 1:8
[9] = combination with D-cycloserine, ratio Pep/Antib. 8:1
[10] = Escherichia coli, substance alone, agar dilution, read-out: minimum inhibitory concentration (M.I.C.)
[11] = peptide:D-cycloserine ratio 1:1
[12] = peptide:D-cycloserine ratio 1:8
[13] = peptide:D-cycloserine ratio 8:1

Structure (SMILES): Br.C[C@H](N)C(=O)N[C@H](CF)C(=O)O [Example 1, L-alanyl-β-fluoro-D-alanine hydrobromide]
- F.I.C. Index ([1]; E. coli (305-101) in mice, dipeptide:D-cycloserine 10:1): 0.90
- CD50 (mg/kg) Combination ([1]; E. coli (305-101) in mice, dipeptide:D-cycloserine 10:1, amount of peptide only listed, D-cycloserine is 10% of it): 25 mg/kg
- CD50 (mg/kg) Peptide ([1]; mice infected i.p. with E. coli (305-101), dosed subcutaneously, 7 days survival, peptide alone): 26 mg/kg
- F.I.C. Index ([2]; S. aureus (Smith) in mice, dipeptide:D-cycloserine 10:1): < 0.37
- CD50 (mg/kg) Combination ([2]; S. aureus (Smith) in mice, dipeptide:D-cycloserine 10:1, amount of peptide only listed, D-cycloserine is 10% of it): < 3.1 mg/kg
- CD50 (mg/kg) Peptide ([2]; mice infected i.p. with S. aureus (Smith), dosed subcutaneously, 7 days survival, peptide alone): 9.2 mg/kg
- MIC ([3]; combination with D-cycloserine, ratio Pep/Antib. 1:1, read-out: MIC ppm Pep/Antib., peptide part): 0.2 µg/mL
- MIC ([3]; combination with D-cycloserine, ratio Pep/Antib. 1:8, read-out: MIC ppm Pep/Antib., peptide part): 0.2 µg/mL
- MIC ([3]; combination with D-cycloserine, ratio Pep/Antib. 8:1, read-out: MIC ppm Pep/Antib., peptide part): 0.39 µg/mL
- MIC ([3]; peptide alone, E. coli (Juhl), 35-37° C., 16-20 hours, read-out: MIC ppm Peptide): > 800 µg/mL
- F.I.C. Index [3, 7]: 0.02
- MIC ppm Pep/Antib., antibiotic part [3, 7]: 0.2 ppm
- F.I.C. Index [3, 8]: 0.12
- MIC ppm Pep/Antib., antibiotic part [3, 8]: 1.56 ppm
- F.I.C. Index [3, 9]: 0.004
- MIC ppm Pep/Antib., antibiotic part [3, 9]: 0.05 ppm
- F.I.C. Index ([4]; Strep. pyrogenes (C 203) in mice, dipeptide:D-cycloserine 10:1): 0.60
- CD50 (mg/kg) Combination ([4]; Strep. pyrogenes (C 203) in mice, dipeptide:D-cycloserine 10:1, amount of peptide only listed, D-cycloserine is 10% of it): 10.9 mg/kg
- CD50 (mg/kg) Peptide ([4]; mice infected i.p. with Strep. pyrogenes (C 203), dosed subcutaneously, 7 days survival, peptide alone): 17.8 mg/kg
- MIC [5, 10]: > 800 µg/mL
- M.I.C. of combination, D-cycloserine part [5, 11]: 0.1 ppm
- M.I.C. of combination, peptide part [5, 11]: 0.1 ppm
- M.I.C. of combination, D-cycloserine part [5, 12]: 0.78 ppm
- M.I.C. of combination, peptide part [5, 12]: 0.1 ppm
- M.I.C. of combination, D-cycloserine part [5, 13]: 0.05 ppm
- M.I.C. of combination, peptide part [5, 13]: 0.39 ppm
- MIC [6, 10]: > 800 µg/mL
- M.I.C. of combination, D-cycloserine part [6, 11]: 0.2 ppm
- M.I.C. of combination, peptide part [6, 11]: 0.2 ppm
- M.I.C. of combination, D-cycloserine part [6, 12]: 1.56 ppm
- M.I.C. of combination, peptide part [6, 12]: 0.2 ppm
- M.I.C. of combination, D-cycloserine part [6, 13]: 0.05 ppm
- M.I.C. of combination, peptide part [6, 13]: 0.39 ppm
